Reference: patent publication US20030225152A1, “3-(Arylamino)methylene-1, 3-dihydro-2h-indol-2-ones as kinase inhibitors” (priority 2001, published 2003)

Assays:
[1] = biological target: T1, cytoplasmic domain of the human VEGF receptor (VEGFR-2) (Homo sapiens, UniProt P35968); experiment: KDR Assay; assay type: biochemical; details: His-VEGFR-2; 3.6 μM ATP
T1 construct: The cytoplasmic domain of the human VEGF receptor (VEGFR-2) was expressed as a Histidine-tagged fusion protein; Histidine tag
T1 sequence (P35968 786-1356): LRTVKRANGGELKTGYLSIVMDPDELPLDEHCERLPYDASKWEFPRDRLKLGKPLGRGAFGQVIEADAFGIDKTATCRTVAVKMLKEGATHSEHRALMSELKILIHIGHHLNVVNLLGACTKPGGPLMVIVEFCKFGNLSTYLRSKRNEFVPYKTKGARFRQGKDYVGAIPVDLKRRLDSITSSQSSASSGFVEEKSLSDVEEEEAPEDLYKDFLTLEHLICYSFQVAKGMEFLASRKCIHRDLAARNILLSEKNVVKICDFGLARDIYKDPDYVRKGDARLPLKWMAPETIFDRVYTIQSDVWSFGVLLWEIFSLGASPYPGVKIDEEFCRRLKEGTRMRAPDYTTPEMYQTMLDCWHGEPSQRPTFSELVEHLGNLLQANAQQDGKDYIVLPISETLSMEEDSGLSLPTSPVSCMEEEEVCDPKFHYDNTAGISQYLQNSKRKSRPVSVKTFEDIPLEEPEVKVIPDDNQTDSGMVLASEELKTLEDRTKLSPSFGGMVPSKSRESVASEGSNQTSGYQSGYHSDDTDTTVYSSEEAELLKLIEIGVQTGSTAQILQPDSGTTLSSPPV
Method: The cytoplasmic domain of the human VEGF receptor (VEGFR-2) was expressed as a Histidine-tagged fusion protein following infection of insect cells using an engineered baculovirus. His-VEGFR-2 was purified to homogeneity, as determined by SDS-PAGE, using nickel resin chromatography. Kinase assays were performed in 96 well microtiter plates that were coated overnight with 30 μg of poly-Glu-Tyr (4:1) in 10 mM Phosphate Buffered Saline (PBS), pH 7.2-7.4. The plates were incubated with 1% BSA and then washed four times with PBS prior to starting the reaction. Reactions were carried out in 120 μL reaction volumes containing 3.6 μM ATP in kinase buffer (50 mM Hepes buffer pH 7.4, 20 mM MgCl2, 0.1 mM MnCl2 and 0.2 mM Na3VO4). Test compounds were reconstituted in 100% DMSO and added to the reaction to give a final DMSO concentration of 5%. Reactions were initiated by the addition 0.5 ng of purified protein. Following a ten minute incubation at 25° C., the reactions were washed four times with PBS containing 0.05% Tween-20. 100 μl of a monoclonal anti-phosphotyrosine antibody-peroxidase conjugate was diluted 1:10000 in PBS-Tween-20 and added to the wells for 30 minutes. Following four washes with PBS-Tween-20, 100 μl of O-phenylenediamine Dihydrochloride in Phosphate-citrate buffer, containing urea hydrogen peroxide, was added to the wells for 7 minutes as a colorimetric substrate for the peroxidase. The reaction was terminated by the addition of 100 μl of 2.5N H2SO4 to each well and read using a microplate ELISA reader set at 492 nm. IC50 values for compound inhibition were calculated directly from graphs of optical density (arbitrary units) versus compound concentration following subtraction of blank values.

[2] = tested on: VEGF induced increases in intracellular calcium levels in HUVEC (human umbilical vein endothelial cells); experiment: VEGF Stimulated Ca++ Signal in vitro (FLIPR); assay type: cell-based; details: Homo sapiens, 0.01 to 10.0 μM, VEGF 5 ng/mL
Procedure, shortened: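 IC50 values derive from % inhibition of the VEGF (5 ng/mL) calcium response, taken as max-min fluorescence at 516 nm in Fluo-4-loaded HUVEC. Compounds (0.1% DMSO final) were added 30 min before stimulation, at 10 μM or across 0.01–10.0 μM.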

IC50 [1] | Structure (SMILES) | IC50 [2]
140 nM | O=C1Nc2ccccc2C1=CNc1ccc(CN2CCCCC2)cc1 [Example 251, 3-[(4-Piperidin-1-ylmethyl-phenylamino)-methylene]-1,3-dihydro-indol-2-one] | –
150 nM | Cc1cccc2c1C(=CNc1ccc(OCCN3CCCCC3)cc1)C(=O)N2 [Example 252, 4-Methyl-3-{[4-(2-piperidin-1-yl-ethoxy)-phenylamino]-methylene}-1,3-dihydro-indol-2-one] | –
170 nM | O=C1Nc2cc(F)ccc2C1=CNc1ccc(OCCN2CCCCC2)cc1 [Example 253, 6-Fluoro-3-{[4-(2-piperidin-1-yl-ethoxy)-phenylamino]-methylene}-1,3-dihydro-indol-2-one] | –
500 nM | O=C1Nc2ccccc2C1=CNc1ccc(OCCN2CCCCC2)cc1 [Example 254, 3-{[4-(2-Piperidin-1-yl-ethoxy)-phenylamino]-methylene}-1,3-dihydro-indol-2-one] | –
300 nM | O=C1Nc2cc(F)ccc2C1=CNc1ccc(CN2CCCCC2)cc1 [Example 259, 6-Fluoro-3-[(4-piperidin-1-ylmethyl-phenylamino)-methylene]-1,3-dihydro-indol-2-one] | –
360 nM | O=C1Nc2ccc(F)cc2C1=CNc1ccc(OCCN2CCCCC2)cc1 [Example 263, 5-Fluoro-3-{[4-(2-piperidin-1-yl-ethoxy)-phenylamino]-methylene}-1,3-dihydro-indol-2-one] | –
70 nM | CCN(CC)CCOc1ccc(NC=C2C(=O)Nc3cccc(C)c32)cc1 [Example 264, 3-{[4-(2-Diethylamino-ethoxy)-phenylamino]-methylene}-4-methyl-1,3-dihydro-indol-2-one] | –
110 nM | Cc1cccc2c1C(=CNc1ccc(OCCN3CCCC3)cc1)C(=O)N2 [Example 270, 4-Methyl-3-{[4-(2-pyrrolidin-1-yl-ethoxy)-phenylamino]-methylene}-1,3-dihydro-indol-2-one] | –
460 nM | O=C1Nc2ccccc2C1=CNc1ccc(OCCN2CCCC2)cc1 [Example 272, 3-{[4-(2-Pyrrolidin-1-yl-ethoxy)-phenylamino]-methylene}-1,3-dihydro-indol-2-one] | –
210 nM | O=C1Nc2ccc(F)cc2C1=CNc1ccc(OCCN2CCCC2)cc1 [Example 274, 5-Fluoro-3-{[4-(2-pyrrolidin-1-yl-ethoxy)-phenylamino]-methylene}-1,3-dihydro-indol-2-one] | –
80 nM | Cc1cccc2c1C(=CNc1ccc(OCC3CCCN(C)C3)cc1)C(=O)N2 (centres unmarked) [Example 278, 4-Methyl-3-{[4-(1-methyl-piperidin-3-ylmethoxy)-phenylamino]-methylene}-1,3-dihydro-indol-2-one] | –
160 nM | CN1CCCC(COc2ccc(NC=C3C(=O)Nc4cc(F)ccc43)cc2)C1 (centres unmarked) [Example 279, 6-Fluoro-3-{[4-(1-methyl-piperidin-3-ylmethoxy)-phenylamino]-methylene}-1,3-dihydro-indol-2-one] | –
460 nM | CN1CCCC(COc2ccc(NC=C3C(=O)Nc4ccccc43)cc2)C1 (centres unmarked) [Example 280, 3-{[4-(1-Methyl-piperidin-3-ylmethoxy)-phenylamino]-methylene}-1,3-dihydro-indol-2-one] | –
330 nM | CN1CCCC(COc2ccc(NC=C3C(=O)Nc4ccc(F)cc43)cc2)C1 (centres unmarked) [Example 282, 5-Fluoro-3-{[4-(1-methyl-piperidin-3-ylmethoxy)-phenylamino]-methylene}-1,3-dihydro-indol-2-one] | –
250 nM | O=C1Nc2ccccc2C1=CNc1ccc(CCN2CCCCC2)cc1 [Example 284, 3-{[4-(2-Piperidin-1-yl-ethyl)-phenylamino]-methylene}-1,3-dihydro-indol-2-one] | –
40 nM | Cc1cccc2c1C(=CNc1ccc(CCN3CCCCC3)cc1)C(=O)N2 [Example 286, 4-Methyl-3-{[4-(2-piperidin-1-yl-ethyl)-phenylamino]-methylene}-1,3-dihydro-indol-2-one] | –
330 nM | O=C1Nc2ccc(F)cc2C1=CNc1ccc(CCN2CCCCC2)cc1 [Example 288, 5-Fluoro-3-{[4-(2-piperidin-1-yl-ethyl)-phenylamino]-methylene}-1,3-dihydro-indol-2-one] | –

IC50 [1] | Structure (SMILES) | IC50 [2]
260 nM | O=C1Nc2cc(F)ccc2C1=CNc1ccc(CCN2CCCCC2)cc1 [Example 289, 6-Fluoro-3-{[4-(2-piperidin-1-yl-ethyl)-phenylamino]-methylene}-1,3-dihydro-indol-2-one] | –
580 nM | O=C1Nc2ccccc2C1=CNc1ccc(CN2CCOCC2)cc1 [Example 290, 3-[(4-Morpholin-4-ylmethyl-phenylamino)-methylene]-1,3-dihydro-indol-2-one] | –
90 nM | Cc1cccc2c1C(=CNc1ccc(CN3CCOCC3)cc1)C(=O)N2 [Example 292, 4-Methyl-3-[(4-morpholin-4-ylmethyl-phenylamino)-methylene]-1,3-dihydro-indol-2-one] | –
380 nM | O=C1Nc2ccc(F)cc2C1=CNc1ccc(CN2CCOCC2)cc1 [Example 294, 5-Fluoro-3-[(4-morpholin-4-ylmethyl-phenylamino)-methylene]-1,3-dihydro-indol-2-one] | –
180 nM | O=C1Nc2cc(F)ccc2C1=CNc1ccc(CN2CCOCC2)cc1 [Example 295, 6-Fluoro-3-[(4-morpholin-4-ylmethyl-phenylamino)-methylene]-1,3-dihydro-indol-2-one] | –
140 nM | Cc1cccc2c1C(=CNc1ccc(NCCCN3CCOCC3)cc1)C(=O)N2 [Example 296, 4-Methyl-3-{[4-(3-morpholin-4-yl-propylamino)-phenylamino]-methylene}-1,3-dihydro-indol-2-one] | –
390 nM | O=C1Nc2ccccc2C1=CNc1ccc(NCCCN2CCOCC2)cc1 [Example 297, 3-{[4-(3-Morpholin-4-yl-propylamino)-phenylamino]-methylene}-1,3-dihydro-indol-2-one] | –
340 nM | O=C1Nc2cc(F)ccc2C1=CNc1ccc(NCCCN2CCOCC2)cc1 [Example 298, 6-Fluoro-3-{[4-(3-morpholin-4-yl-propylamino)-phenylamino]-methylene}-1,3-dihydro-indol-2-one] | –
140 nM | O=C1Nc2ccc(Cl)cc2C1=CNc1ccc(NCCCN2CCOCC2)cc1 [Example 299, 5-Chloro-3-{[4-(3-morpholin-4-yl-propylamino)-phenylamino]-methylene}-1,3-dihydro-indol-2-one] | –
– | O=C1Nc2ccc(Cl)cc2C1=CNc1ccc(CCCCN2CCOCC2)cc1 [Example 313, 5-Chloro-3-{[4-(4-morpholin-4-yl-butyl)-phenylamino]-methylene}-1,3-dihydro-indol-2-one] | 990 nM
– | Cc1cccc2c1C(=CNc1ccc(CCCCN3CCOCC3)cc1)C(=O)N2 [Example 314, 4-Methyl-3-{[4-(4-morpholin-4-yl-butyl)-phenylamino]-methylene}-1,3-dihydro-indol-2-one] | 320 nM
– | O=C1Nc2cccc(F)c2C1=CNc1ccc(CCCCN2CCOCC2)cc1 [Example 315, 4-Fluoro-3-{[4-(4-morpholin-4-yl-butyl)-phenylamino]-methylene}-1,3-dihydro-indol-2-one] | 1540 nM
– | O=C1Nc2ccc(F)cc2C1=CNc1ccc(CCCCN2CCOCC2)cc1 [Example 316, 5-Fluoro-3-{[4-(4-morpholin-4-yl-butyl)-phenylamino]-methylene}-1,3-dihydro-indol-2-one] | 590 nM
– | O=C1Nc2cc(F)ccc2C1=CNc1ccc(CCCCN2CCOCC2)cc1 [Example 317, 6-Fluoro-3-{[4-(4-morpholin-4-yl-butyl)-phenylamino]-methylene}-1,3-dihydro-indol-2-one] | 170 nM
– | O=C1Nc2ccc(Cl)cc2C1=CNc1ccc(CCCCN2CCCCC2)cc1 [Example 319, 5-Chloro-3-{[4-(4-piperidin-1-yl-butyl)-phenylamino]-methylene}-1,3-dihydro-indol-2-one] | 950 nM
– | Cc1cccc2c1C(=CNc1ccc(CCCCN3CCCCC3)cc1)C(=O)N2 [Example 320, 4-Methyl-3-{[4-(4-piperidin-1-yl-butyl)-phenylamino]-methylene}-1,3-dihydro-indol-2-one] | 330 nM
– | O=C1Nc2cccc(F)c2C1=CNc1ccc(CCCCN2CCCCC2)cc1 [Example 321, 4-Fluoro-3-{[4-(4-piperidin-1-yl-butyl)-phenylamino]-methylene}-1,3-dihydro-indol-2-one] | 1180 nM

Structure (SMILES) | IC50 [1] | IC50 [2]
Cc1cccc2c1C(=CNc1ccc(OCCCCN3CCCCC3)cc1)C(=O)N2 [Example 246, 4-Methyl-3-{[4-(4-piperidin-1-yl-butoxy)-phenylamino]-methylene}-1,3-dihydro-indol-2-one] | 90 nM | –
